Patent publication US10314823B2, “Substituted 1,2-dihydro-3H-pyrrolo[1,2-c]imidazol-3-one antibacterial compounds” (IDORSIA PHARMACEUTICALS LTD, priority 2015, dated 2019)
≈ marks a conversion by molar mass, not a printed value.

Key:
Test in all cases: Bacterial growth minimal inhibitory concentration (CLSI broth microdilution)
Type in all cases: cell-based
P. aeruginosa ATCC27853 = conditions: Pseudomonas aeruginosa, ATCC27853; quinolone-sensitive strain; cation-adjusted Mueller-Hinton Broth
Experimental: (§1) Minimal Inhibitory Concentrations (MICs; mg/L) were determined in cation-adjusted Mueller-Hinton Broth by a microdilution method following the description given in “Methods for Dilution Antimicrobial Susceptibility Tests for Bacteria that Grow Aerobically”, Approved standard, 7th ed., Clinical and Laboratory Standards Institute (CLSI) Document M7-A7, Wayne, Pa., USA (2006).
(§2) All Reference Example compounds were tested against several Gram-negative bacteria. K. pneumoniae A-651 is a multiply resistant strain (in particular quinolone-resistant), while E. coli ATCC25922 and P. aeruginosa ATCC27853 are quinolone-sensitive strains. The corresponding antibacterial test results are given in Table 1 hereafter (MICs in mg/L).

E. coli ATCC25922 = conditions: Escherichia coli, ATCC25922; quinolone-sensitive strain; cation-adjusted Mueller-Hinton Broth
Experimental: as §1, §2

K. pneumoniae A-651 = conditions: Klebsiella pneumoniae, A651; multiply resistant strain (in particular quinolone-resistant); cation-adjusted Mueller-Hinton Broth
Experimental: as §1, §2

Structure (SMILES) | MIC (P. aeruginosa ATCC27853) [µg/mL] | MIC (E. coli ATCC25922) [µg/mL] | MIC (K. pneumoniae A-651) [µg/mL]
C[C@@](CCN1Cc2cc(C#Cc3ccc(CN4CC(CO)OC4=O)cc3)cn2C1=O)(C(=O)NO)S(C)(=O)=O (mixture of isomers) [Example 12, (2R)—N-hydroxy-4-(6-((4-((RS)-(5-(hydroxymethyl)-2-oxooxazolidin-3-yl)methyl)phenyl)ethynyl)-3-oxo-1H-pyrrolo[1,2-c]imidazol-2(3H)-yl)-2-methyl-2-(methylsulfonyl)butanamide] | 4 | 1 | 2
COCCN(C)CC(O)c1ccc(C#Cc2cc3n(c2)C(=O)N(CC[C@](C)(C(=O)NO)S(C)(=O)=O)C3)cc1 (mixture of isomers) [Example 28, (2R)—N-hydroxy-4-(6-((RS)-(4-(1-hydroxy-2-((2-methoxyethyl)(methyl)amino)ethyl)phenyl)ethynyl)-3-oxo-1H-pyrrolo[1,2-c]imidazol-2(3H)-yl)-2-methyl-2-(methylsulfonyl)butanamide] | 2 | 1 | 8
C[C@@](CCN1Cc2cc(C#CC#CC3(F)CCN(C4CC4)C3)cn2C1=O)(C(=O)NO)S(C)(=O)=O (mixture of isomers) [Example 76, (2R)-4-(6-(((3RS)-1-cyclopropyl-3-fluoropyrrolidin-3-yl)buta-1,3-diyn-1-yl)-3-oxo-1H-pyrrolo[1,2-c]imidazol-2(3H)-yl)-N-hydroxy-2-methyl-2-(methylsulfonyl)butanamide] | 2 | 0.125 | 0.25
CN1CCC(C)(C#CC#Cc2cc3n(c2)C(=O)N(CC[C@](C)(C(=O)NO)S(C)(=O)=O)C3)C1 (mixture of isomers) [Example 82, (2R)-4-(6-(((3RS)-1,3-dimethylpyrrolidin-3-yl)buta-1,3-diyn-1-yl)-3-oxo-1H-pyrrolo[1,2-c]imidazol-2(3H)-yl)-N-hydroxy-2-methyl-2-(methylsulfonyl)butanamide] | 4 | 2 | 2
C[C@@](CCN1Cc2cc(C#Cc3ccc(CN4CC[C@H](O)[C@H](F)C4)cc3)cn2C1=O)(C(=O)NO)S(C)(=O)=O (relative stereo) [Example 42, (2R)-4-(6-((4-(((3R*,4S*)-3-fluoro-4-hydroxypiperidin-1-yl)methyl)phenyl)ethynyl)-3-oxo-1H-pyrrolo[1,2-c]imidazol-2(3H)-yl)-N-hydroxy-2-methyl-2-(methylsulfonyl)butanamide] | 2 (≈ 3.66 µM) | 0.5 (≈ 0.915 µM) | 1 (≈ 1.83 µM)
CN1C[C@H](O)[C@@H](C#CC#Cc2cc3n(c2)C(=O)N(CC[C@](C)(C(=O)NO)S(C)(=O)=O)C3)C1 (relative stereo) [Example 99, (2R)—N-hydroxy-4-(6-(((3S*,4R*)-4-hydroxy-1-methylpyrrolidin-3-yl)buta-1,3-diyn-1-yl)-3-oxo-1H-pyrrolo[1,2-c]imidazol-2(3H)-yl)-2-methyl-2-(methylsulfonyl)butanamide] | 2 (≈ 4.32 µM) | 2 (≈ 4.32 µM) | 2 (≈ 4.32 µM)
C[C@@](CCN1Cc2cc(C#Cc3ccc([C@@H](O)CN4CCOCC4)cc3)cn2C1=O)(C(=O)NO)S(C)(=O)=O (single isomer, unassigned) [Example 1] | 2 (≈ 3.67 µM) | 1 (≈ 1.84 µM) | 2 (≈ 3.67 µM)
C[C@@](CCN1Cc2cc(C#Cc3ccc([C@H](O)CN4CCOCC4)cc3)cn2C1=O)(C(=O)NO)S(C)(=O)=O (single isomer, unassigned) [Example 2] | 1 (≈ 1.84 µM) | 1 (≈ 1.84 µM) | 1 (≈ 1.84 µM)
CN1CC[C@@](F)(C#CC#Cc2cc3n(c2)C(=O)N(CC[C@](C)(C(=O)NO)S(C)(=O)=O)C3)C1.O=C(O)C(F)(F)F (single isomer, unassigned) [Example 71] | 2 | 0.25 | 0.5
CN1CC[C@](F)(C#CC#Cc2cc3n(c2)C(=O)N(CC[C@](C)(C(=O)NO)S(C)(=O)=O)C3)C1.O=C(O)C(F)(F)F (single isomer, unassigned) [Example 72] | 2 | 0.5 | 0.5
C[C@@](CCN1Cc2cc(C#Cc3ccc(CN4CC5(COC5)C4)cc3)cn2C1=O)(C(=O)NO)S(C)(=O)=O [Example 3, (2R)-4-(6-((4-((2-oxa-6-azaspiro[3.3]heptan-6-yl)methyl)phenyl)ethynyl)-3-oxo-1H-pyrrolo[1,2-c]imidazol-2(3H)-yl)-N-hydroxy-2-methyl-2-(methylsulfonyl)butanamide] | 1 (≈ 1.9 µM) | 0.25 (≈ 0.475 µM) | 1 (≈ 1.9 µM)
C[C@@](CCN1Cc2cc(C#Cc3ccc(CN4CC5C(N)C5C4)cc3)cn2C1=O)(C(=O)NO)S(C)(=O)=O (stereo partly drawn) [Example 4, (2R)-4-(6-((4-((6-amino-3-azabicyclo[3.1.0]hexan-3-yl)methyl)phenyl)ethynyl)-3-oxo-1H-pyrrolo[1,2-c]imidazol-2(3H)-yl)-N-hydroxy-2-methyl-2-(methylsulfonyl)butanamide] | 2 (≈ 3.8 µM) | 2 (≈ 3.8 µM) | 2 (≈ 3.8 µM)
C[C@@](CCN1Cc2cc(C#Cc3ccc(COC(=O)N4CCC(O)CC4)cc3)cn2C1=O)(C(=O)NO)S(C)(=O)=O [Example 5, (3R)-4-((2-(4-(hydroxyamino)-3-methyl-3-(methylsulfonyl)-4-oxobutyl)-3-oxo-2,3-dihydro-1H-pyrrolo[1,2-c]imidazol-6-yl)ethynyl)benzyl 4-hydroxypiperidine-1-carboxylate] | 2 (≈ 3.49 µM) | 0.25 (≈ 0.437 µM) | 1 (≈ 1.75 µM)
CC(=O)N1CC(O)(c2ccc(C#Cc3cc4n(c3)C(=O)N(CC[C@](C)(C(=O)NO)S(C)(=O)=O)C4)cc2)C1 [Example 6, (2R)-4-(6-((4-(1-acetyl-3-hydroxyazetidin-3-yl)phenyl)ethynyl)-3-oxo-1H-pyrrolo[1,2-c]imidazol-2(3H)-yl)-N-hydroxy-2-methyl-2-(methylsulfonyl)butanamide] | 1 (≈ 1.89 µM) | 2 (≈ 3.78 µM) | 4 (≈ 7.57 µM)
C[C@@](CCN1Cc2cc(C#CC#CCOC(=O)N3CCC(O)CC3)cn2C1=O)(C(=O)NO)S(C)(=O)=O [Example 8, (3R)-5-(2-(4-(hydroxyamino)-3-methyl-3-(methylsulfonyl)-4-oxobutyl)-3-oxo-2,3-dihydro-1H-pyrrolo[1,2-c]imidazol-6-yl)penta-2,4-diyn-1-yl 4-hydroxypiperidine-1-carboxylate] | 2 (≈ 3.84 µM) | 1 (≈ 1.92 µM) | 2 (≈ 3.84 µM)

Other lines, results leading:

MIC (P. aeruginosa ATCC27853) [µg/mL] | MIC (E. coli ATCC25922) [µg/mL] | MIC (K. pneumoniae A-651) [µg/mL] | Structure (SMILES)
1 | 0.5 | 1 | C[C@@](CCN1Cc2cc(C#CC#CC3(F)CCN(CCO)C3)cn2C1=O)(C(=O)NO)S(C)(=O)=O (mixture of isomers) [Example 77, (2R)-4-(6-(((3RS)-3-fluoro-1-(2-hydroxyethyl)pyrrolidin-3-yl)buta-1,3-diyn-1-yl)-3-oxo-1H-pyrrolo[1,2-c]imidazol-2(3H)-yl)-N-hydroxy-2-methyl-2-(methylsulfonyl)butanamide]
1 | 1 | 1 | C[C@@](CCN1Cc2cc(C#CC#CC3(F)CCNC3)cn2C1=O)(C(=O)NO)S(C)(=O)=O (mixture of isomers) [Example 78, (2R)-4-(6-(((3RS)-3-fluoropyrrolidin-3-yl)buta-1,3-diyn-1-yl)-3-oxo-1H-pyrrolo[1,2-c]imidazol-2(3H)-yl)-N-hydroxy-2-methyl-2-(methylsulfonyl)butanamide]
1 | 2 | 1 | CN1CCC(C#CC#Cc2cc3n(c2)C(=O)N(CC[C@](C)(C(=O)NO)S(C)(=O)=O)C3)C1 (mixture of isomers) [Example 83, (2R)—N-hydroxy-2-methyl-4-(6-(((3RS)-1-methylpyrrolidin-3-yl)buta-1,3-diyn-1-yl)-3-oxo-1H-pyrrolo[1,2-c]imidazol-2(3H)-yl)-2-(methylsulfonyl)butanamide]
1 (≈ 1.83 µM) | 1 (≈ 1.83 µM) | 1 (≈ 1.83 µM) | C[C@@](CCN1Cc2cc(C#Cc3ccc(CN4CC[C@H](N)[C@@H](F)C4)cc3)cn2C1=O)(C(=O)NO)S(C)(=O)=O (relative stereo) [Example 13, (2R)-4-(6-((4-(((3S*,4S*)-4-amino-3-fluoropiperidin-1-yl)methyl)phenyl)ethynyl)-3-oxo-1H-pyrrolo[1,2-c]imidazol-2(3H)-yl)-N-hydroxy-2-methyl-2-(methylsulfonyl)butanamide]
1 (≈ 1.83 µM) | 0.25 (≈ 0.457 µM) | 0.5 (≈ 0.915 µM) | C[C@@](CCN1Cc2cc(C#Cc3ccc(CN4CC[C@H](O)[C@@H](F)C4)cc3)cn2C1=O)(C(=O)NO)S(C)(=O)=O (relative stereo) [Example 36, (2R)-4-(6-((4-(((3S*,4S*)-3-fluoro-4-hydroxypiperidin-1-yl)methyl)phenyl)ethynyl)-3-oxo-1H-pyrrolo[1,2-c]imidazol-2(3H)-yl)-N-hydroxy-2-methyl-2-(methylsulfonyl)butanamide]
0.5 (≈ 1.05 µM) | 1 (≈ 2.1 µM) | 1 (≈ 2.1 µM) | CN1C[C@@H](C#CC#Cc2cc3n(c2)C(=O)N(CC[C@](C)(C(=O)NO)S(C)(=O)=O)C3)C[C@@H]1CO (single isomer, unassigned) [Example 94]
0.5 (≈ 1.08 µM) | 0.5 (≈ 1.08 µM) | 2 (≈ 4.31 µM) | C[C@@](CCN1Cc2cc(C#CC#C[C@@H]3C[C@H]3[C@H](O)CO)cn2C1=O)(C(=O)NO)S(C)(=O)=O [Example 7, (2R)-4-(6-(((1R,2R)-2-((S)-1,2-dihydroxyethyl)cyclopropyl)buta-1,3-diyn-1-yl)-3-oxo-1H-pyrrolo[1,2-c]imidazol-2(3H)-yl)-N-hydroxy-2-methyl-2-(methylsulfonyl)butanamide]
